We go through 23 compounds from US10501479B2, “Benzenesulfonyl-asymmetric ureas and medical uses thereof” (HELSINN HEALTHCARE SA, priority 2016, dated 2019).

Common to all, as to type: cell-based
The target of assay [1] is T1, GHSR-1a (HEK293/GHSR1a cell line) (Homo sapiens, UniProt Q92847).
T1 construct: expressed in transfected cells; host or cells: HEK293/GHSR1a cell line
Description: Ghrelin antagonist potency (IC50) with calcium FLIPR assay, ghrelin 10 nM. As to conditions: HEK293/GHSR1a, ghrelin 10 nM, read-out: Activity IC50 (ghrelin antagonist potency). The gist of the method: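 Fluorescence read-out of intracellular calcium over 2 min. Agonist EC50 came from compound added alone at t=20 sec. Antagonist IC50 came from the reduction of the response to 10 nM ghrelin co-added with compound at t=20 sec. Both were fitted from dose-response data.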

In assay [2] the target is T1, GHSR-1a (HEK293/GHSR1a cell line). Description: Ghrelin agonist potency (EC50) with calcium FLIPR assay. As to conditions: HEK293/GHSR1a, read-out: Activity EC50/EMax: EC50 (ghrelin agonist potency). On the procedure:
Evaluation of Ghrelin Agonist (EC50) and Antagonist Potency (IC50) with Calcium FLIPR Assay:
The intracellular calcium assay was carried out in a 384-well format FLIPR™ (Molecular Device) HEK293/GHSR1a cell line. Cells were seeded 24 hr prior to the experiments at an optimal density per well. Preincubation with selected calcium dye lasted for 30-60 min at room temperature or 37° C. Test compounds, dissolved in DMSO, were added at the appropriate time and incubated for 15 min followed by the addition of ghrelin with FlexStation or FLIPR. Relative fluorescence was monitored by the FLIPR™ Molecular Device. EC50 and IC50 values were estimated from dose-response data using GraphPad Prism software. To check for GHSR-1a agonism, the compound was added at t=20 sec. and the calcium response was followed for 2 minutes. To check for GHSR-1a antagonism, the compound and Ghrelin (10 nM) were added to the cells at t=20 sec. and the calcium response was measured for 2 minutes. The potency of the antagonist was calculated by its ability to reduce the ghrelin response. Dose-response curves were made for relevant antagonists.

The target in assay [3] is T2, recombinant human ghrelin receptor (HEK293/GRLN) (Homo sapiens, UniProt Q92847).
T2 construct: expressed in transfected cells
T2 sequence (Q92847 whole entry): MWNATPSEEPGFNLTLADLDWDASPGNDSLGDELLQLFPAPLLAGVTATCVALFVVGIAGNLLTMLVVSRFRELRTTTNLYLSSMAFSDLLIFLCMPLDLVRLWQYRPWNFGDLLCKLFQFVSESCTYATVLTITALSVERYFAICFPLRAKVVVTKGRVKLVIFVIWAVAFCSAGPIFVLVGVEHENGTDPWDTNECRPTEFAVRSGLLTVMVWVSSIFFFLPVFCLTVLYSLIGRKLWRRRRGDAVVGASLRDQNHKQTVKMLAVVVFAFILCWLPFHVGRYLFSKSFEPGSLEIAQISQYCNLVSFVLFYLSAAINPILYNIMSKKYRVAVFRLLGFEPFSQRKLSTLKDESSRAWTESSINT
Description: Ghrelin inverse agonist potency (EC50) with IP-1 (IP-One HTRF) assay. As to conditions: IP-1 assay, HEK293/GRLN; read-out: Activity EC50 (ghrelin inverse agonist potency). The gist of the method: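 IP-1 accumulation was measured by HTRF (IP1-d2/Tb-cryptate, 620/665 nm read after 1 hour at room temperature) following 1 hour of compound treatment at 37° C. Cells were HEK293 stably expressing human ghrelin receptor, plated a day earlier on Matrigel. Inverse agonist potency was reported as EC50.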
In general terms: TR-FRET usually uses a lanthanide donor and a delayed reading to cut background.

Structures are written as SMILES.

T1 sequence (Q92847 whole entry): as above

For the compound `CC(NC(=O)Nc1ccc(S(=O)(=O)Cc2ccc3c(c2)CNC3)cc1F)c1ccccc1` (stereo not drawn) [H1316, 1-(2-fluoro-4-((isoindolin-5-ylmethyl)sulfonyl)phenyl)-3-(1-phenylethyl)urea], in assay [1], the IC50 turned out to be 30.9 nM. Besides, the EC50 in assay [2] was more than 30000 nM; in assay [3] it was 11.6 nM.
Turning to `CC(NC(=O)Nc1ccc(S(=O)(=O)Cc2cc3c(s2)CNC3)cc1)c1ccccc1` (stereo not drawn) [H1320, 1-(4-(((5,6-dihydro-4H-thieno[2,3-c]pyrrol-2-yl)methyl)sulfonyl)phenyl)-3-(1-phenylethyl)urea], in assay [1], the IC50 worked out at 58.4 nM. Besides, the EC50 was more than 30000 nM in assay [2] and 43.3 nM in assay [3].
On to `O=C(Nc1ccc(S(=O)(=O)Cc2ccc3c(c2)CNC3)cc1)NC1COc2ccccc21` (stereo not drawn) [H1330, 1-(2,3-dihydrobenzofuran-3-yl)-3-(4-((isoindolin-5-ylmethyl)sulfonyl)phenyl)urea], for which the IC50 in assay [1] was determined as 147 nM. Moreover, the EC50 is more than 30000 nM in assay [2] and 142 nM in assay [3].
For `CN1Cc2ccc(CS(=O)(=O)c3ccc(NC(=O)NC4COc5ccccc54)cc3)cc2C1` (stereo not drawn) [H1331, 1-(2,3-dihydrobenzofuran-3-yl)-3-(4-(((2-methylisoindolin-5-yl)methyl)sulfonyl)phenyl)urea], the IC50 in assay [1] turned out to be 213 nM. Moreover, the EC50 in assay [2] was more than 30000 nM; in assay [3] it was 130 nM.
As for `C[C@@H](NC(=O)Nc1ccc(S(=O)(=O)Cc2ccc(C3CCCN3)cc2)cc1)c1ccccc1` (stereo partly drawn) [H1332, 1-((R)-1-phenylethyl)-3-(4-((4-(pyrrolidin-2-yl)benzyl)sulfonyl)phenyl)urea], the IC50 in assay [1] amounted to 73.2 nM. Further, the EC50 was more than 30000 nM in assay [2] and 42.1 nM in assay [3].
As to `CN1Cc2ccc(CS(=O)(=O)c3ccc(NC(=O)N[C@H]4CCCc5ccccc54)cc3)cc2C1` [H1335, (S)-1-(4-(((2-methylisoindolin-5-yl)methyl)sulfonyl)phenyl)-3-(1,2,3,4-tetrahydronaphthalen-1-yl)urea], the IC50 in assay [1] stood at 133 nM. In addition, the EC50 in assay [2] is more than 30000 nM; in assay [3], 69.9 nM.
The corresponding values for `CN1Cc2ccc(CS(=O)(=O)c3ccc(NC(=O)N[C@@H]4CCCc5ccccc54)cc3)cc2C1` [H1336, (R)-1-(4-(((2-methylisoindolin-5-yl)methyl)sulfonyl)phenyl)-3-(1,2,3,4-tetrahydronaphthalen-1-yl)urea] are 381 nM, more than 30000 nM and 263 nM.
As for `CC(NC(=O)Nc1ccc(S(=O)(=O)Cc2ccc3c(c2)CN(CC#N)C3)cc1)c1ccccc1` (stereo not drawn) [H1339, 1-(4-(((2-(cyanomethyl)isoindolin-5-yl)methyl)sulfonyl)phenyl)-3-(1-phenylethyl)urea], in assay [1], the half-inhibitory concentration (IC50) worked out at 309 nM. In addition, the EC50 in assay [2] is more than 30000 nM; in assay [3], 176 nM.
Consider `CC(NC(=O)Nc1ccc(S(=O)(=O)Cc2ccc3c(c2)CN(CC2CCCO2)C3)cc1)c1ccccc1` (stereo not drawn) [H1341, 1-(1-phenylethyl)-3-(4-(((2-((tetrahydrofuran-2-yl)methyl)isoindolin-5-yl)methyl)sulfonyl)phenyl)urea], for which the IC50 in assay [1] came to 69.7 nM. Also, the EC50 in assay [2] was more than 30000 nM; in assay [3] it was 20.9 nM.
Consider `C[C@@H](NC(=O)Nc1ccc(S(=O)(=O)Cc2cc3c(s2)CN(C)C3)cc1)c1ccccc1` [H1348, (R)-1-(4-(((5-methyl-5,6-dihydro-4H-thieno[2,3-c]pyrrol-2-yl)methyl)sulfonyl)phenyl)-3-(1-phenylethyl)urea], for which, in assay [1], the IC50 was found to be 65 nM. Besides, the EC50 in assay [2] is more than 30000 nM; in assay [3], 19.9 nM.
In the case of `CN1CCc2cc(CS(=O)(=O)c3ccc(NC(=O)NCc4cccc(Cl)c4Cl)cc3)ccc2C1` [H1349, 1-(2,3-dichlorobenzyl)-3-(4-(((2-methyl-1,2,3,4-tetrahydroisoquinolin-6-yl)methyl)sulfonyl)phenyl)urea], the IC50 in assay [1] came to 15.3 nM. For the same compound, the values for the EC50 in assay [2] and in assay [3] were more than 30000 nM and 29 nM, respectively.
The corresponding values for `CC(NC(=O)Nc1ccc(S(=O)(=O)Cc2ccc3c(c2)C[N+](C)([O-])C3)cc1)c1ccccc1` (stereo not drawn) [H1350, 2-methyl-5-(((4-(3-(1-phenylethyl)ureido)phenyl)sulfonyl)methyl)isoindoline 2-oxide] are 18200 nM, more than 30000 nM and 7460 nM.
Consider `C[C@@H](NC(=O)Nc1ccc(S(=O)(=O)Cc2csc3c2CN(C)C3)cc1)c1ccccc1` [H1351, (R)-1-(4-(((5-methyl-5,6-dihydro-4H-thieno[2,3-c]pyrrol-3-yl)methyl)sulfonyl)phenyl)-3-(1-phenylethyl)urea], for which the IC50 in assay [1] is 3450 nM. For the same compound, the figures for the EC50 in assay [2] and in assay [3] were more than 30000 nM and 6960 nM, respectively.
For the compound `C[C@H](NC(=O)Nc1ccc(S(=O)(=O)Nc2ccc3c(c2)CCN(C)C3)cc1)c1cccc(Cl)c1Cl` [H1352, (S)-4-(3-(1-(2,3-dichlorophenyl)ethyl)ureido)-N-(2-methyl-1,2,3,4-tetrahydroisoquinolin-6-yl)benzenesulfonamide], in assay [1], the IC50 is 4.6 nM. Further, the EC50 is more than 30000 nM in assay [2] and 7.7 nM in assay [3].
With `CC(=O)N1CC(NC(=O)Nc2ccc(S(=O)(=O)Cc3ccc4c(c3)CNC4)cc2)c2ccccc21` (stereo not drawn) [H1353, 1-(1-acetylindolin-3-yl)-3-(4-((isoindolin-5-ylmethyl)sulfonyl)phenyl)urea], in assay [1], the IC50 stood at 5100 nM. Further, the values for the EC50 in assay [2] and in assay [3] were more than 30000 nM and 8230 nM, respectively.
As for `CC(=O)N1CC(NC(=O)Nc2ccc(S(=O)(=O)Cc3ccc4c(c3)CN(C)C4)cc2)c2ccccc21` (stereo not drawn) [H1354, 1-(1-acetylindolin-3-yl)-3-(4-(((2-methylisoindolin-5-yl)methyl)sulfonyl)phenyl)urea], the IC50 in assay [1] amounted to 8900 nM. The EC50 in assay [2] was more than 30000 nM; in assay [3], 8610 nM.
Take `C[C@@H](NC(=O)Nc1ccc(S(=O)(=O)Cc2ccc3c(c2)CN(C)C3(C)C)cc1)c1ccccc1` [H1357, (R)-1-(1-phenylethyl)-3-(4-(((1,1,2-trimethylisoindolin-5-yl)methyl)sulfonyl)phenyl)urea]: in assay [1], the IC50 was 57 nM. The EC50 in assay [2] was more than 30000 nM; in assay [3] it was 36 nM.
For the compound `CN1Cc2ccc(CS(=O)(=O)c3ccc(NC(=O)NC4CNc5ccccc54)cc3)cc2C1` (stereo not drawn) [H1358, 1-(indolin-3-yl)-3-(4-(((2-methylisoindolin-5-yl)methyl)sulfonyl)phenyl)urea], the IC50 in assay [1] worked out at 1880 nM. For the same compound, the EC50 in assay [2] is more than 30000 nM; in assay [3] it was 1820 nM.
The corresponding values for `CC(NC(=O)Nc1ccc(S(=O)(=O)Cc2cc3c(cc2F)CN(C)CC3)cc1)c1cccc(Cl)c1Cl` (stereo not drawn) [H1366, 1-(1-(2,3-dichlorophenyl)ethyl)-3-(4-(((7-fluoro-2-methyl-1,2,3,4-tetrahydroisoquinolin-6-yl)methyl)sulfonyl)phenyl)urea] are 21.5 nM, more than 30000 nM and 2.5 nM.
Taken in the same sequence, the figures for `CC(NC(=O)Nc1ccc(S(=O)(=O)Cc2ccc3c(c2F)CCN(C)C3)cc1)c1cccc(Cl)c1Cl` (stereo not drawn) [H1367, 1-(1-(2,3-dichlorophenyl)ethyl)-3-(4-(((5-fluoro-2-methyl-1,2,3,4-tetrahydroisoquinolin-6-yl)methyl)sulfonyl)phenyl)urea] were 21.2 nM, more than 30000 nM and 3.3 nM.
Turning to `COc1cc2c(cc1CS(=O)(=O)c1ccc(NC(=O)NC(C)c3cccc(Cl)c3Cl)cc1)CCN(C)C2` (stereo not drawn) [H1368, 1-(1-(2,3-dichlorophenyl)ethyl)-3-(4-(((7-methoxy-2-methyl-1,2,3,4-tetrahydroisoquinolin-6-yl)methyl)sulfonyl)phenyl)urea], the IC50 in assay [1] turned out to be 20.3 nM. The EC50 in assay [2] was more than 30000 nM; in assay [3], 2.8 nM.
For the compound `COc1c(CS(=O)(=O)c2ccc(NC(=O)NC(C)c3cccc(Cl)c3Cl)cc2)ccc2c1CCN(C)C2` (stereo not drawn) [H1369, 1-(1-(2,3-dichlorophenyl)ethyl)-3-(4-(((5-methoxy-2-methyl-1,2,3,4-tetrahydroisoquinolin-6-yl)methyl)sulfonyl)phenyl)urea], the IC50 in assay [1] stood at 3.66 nM. The EC50 was more than 30000 nM in assay [2] and 1.1 nM in assay [3].
As to `CC(NC(=O)Nc1ccc(S(=O)(=O)CC2CCC(NCC3CC3)CC2)cc1)c1cccc(Cl)c1Cl` (stereo not drawn) [H1371, 1-(4-(((4-((cyclopropylmethyl)amino)cyclohexyl)methyl)sulfonyl)phenyl)-3-(1-(2,3-dichlorophenyl)ethyl)urea], the IC50 in assay [1] worked out at 2440 nM. The EC50 was more than 30000 nM in assay [2] and 231 nM in assay [3].

Broadly, the IC50 is the concentration needed to halve the response being measured.
